We go through 20 compounds from PubChem BioAssay AID330 (DTP/NCI, 2004).

Inconclusive results and toxic doses are left out.

The test system of this assay is P388 leukemia ip, CD2F1 mice, survival T/C. Description: NCI In Vivo Anticancer Drug Screen. Data for tumor model P388 Leukemia (intraperitoneal) in CD2F1 (CDF1) mice. Conditions: endpoint: median survival time, higher = longer survival. Put shortly:
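Mice carrying the transplanted tumor received test compound or vehicle. Survival was recorded in each group, and the value is the treated-group measurement divided by that of the vehicle-treated control group.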

Where [1] appears, read: dose: 100.0 mg/kg/injection, schedule: Q01DX009 (ip), vehicle: saline.
[2] abbreviates: dose: 50.0 mg/kg/injection, schedule: Q01DX009 (ip), vehicle: saline.
The mark [3] stands for this setting: dose: 50.0 mg/kg/injection, schedule: Q01DX009 (ip), vehicle: saline with Tween-80.
Setting [4] is: dose: 100.0 mg/kg/injection, schedule: Q01DX009 (ip), vehicle: saline with Tween-80.
[5] abbreviates: dose: 200.0 mg/kg/injection, schedule: Q01DX009 (ip), vehicle: saline with Tween-80.
Setting [6] is: dose: 50.0 mg/kg/injection, schedule: Q01DX005 (ip), vehicle: saline with Tween-80.
[7] abbreviates: dose: 100.0 mg/kg/injection, schedule: Q01DX005 (ip), vehicle: saline with Tween-80.
[8] abbreviates: dose: 200.0 mg/kg/injection, schedule: Q01DX005 (ip), vehicle: saline with Tween-80.

Regarding `Cc1cc2[nH]c(Cl)c(/C=N/NC(N)=S)c2cc1O`, the T/C by setting is: (dose: 100.0 mg/kg/injection, schedule: Q01DX001 (ip), vehicle: Klucel (hydroxypropylcellulose) (HPC)) 99 % of control; (dose: 200.0 mg/kg/injection, schedule: Q01DX001 (ip), vehicle: Klucel (hydroxypropylcellulose) (HPC)) 99 % of control; (dose: 400.0 mg/kg/injection, schedule: Q01DX001 (ip), vehicle: Klucel (hydroxypropylcellulose) (HPC)) 97 % of control.
Consider `COC(=O)OC(C#N)c1cccc([N+](=O)[O-])c1` (stereo not drawn), for which the T/C (dose: 25.0 mg/kg/injection, schedule: Q01DX009 (ip), vehicle: suspension in saline) is 101 % of control; the T/C (dose: 50.0 mg/kg/injection, schedule: Q01DX009 (ip), vehicle: suspension in saline) was 98 % of control; the T/C under setting [1] was 94 % of control; the T/C (dose: 100.0 mg/kg/injection, schedule: Q01DX009 (ip), vehicle: suspension in saline) is 104 % of control.
For `CCOC(=O)CCSC(=O)NCCCCCCNC(=O)SCCC(=O)OCC`, the T/C is 98 % of control (dose: 50.0 mg/kg/injection, schedule: Q01DX005 (ip), vehicle: Klucel (hydroxypropylcellulose) (HPC)); 96 % of control (dose: 100.0 mg/kg/injection, schedule: Q01DX005 (ip), vehicle: Klucel (hydroxypropylcellulose) (HPC)); 102 % of control (dose: 200.0 mg/kg/injection, schedule: Q01DX005 (ip), vehicle: Klucel (hydroxypropylcellulose) (HPC)).
Turning to `CN1C(=O)Cc2ccccc2C1=O`, the T/C is, setting by setting: (dose: 12.5 mg/kg/injection, schedule: Q01DX009 (ip), vehicle: saline) 103 % of control; (dose: 25.0 mg/kg/injection, schedule: Q01DX009 (ip), vehicle: saline) 101 % of control; under setting [2], 119 % of control; under setting [1], 103 % of control.
Turning to `COc1ccc2c(c1)C=CC1OC(C(C)=O)(C(C)=O)C(C=O)=CN21` (stereo not drawn), the T/C is 92 % of control (dose: 60.0 mg/kg/injection, schedule: Q01DX005 (ip), vehicle: saline with Tween-80); 89 % of control (dose: 120.0 mg/kg/injection, schedule: Q01DX005 (ip), vehicle: saline with Tween-80); 98 % of control (dose: 240.0 mg/kg/injection, schedule: Q01DX005 (ip), vehicle: saline with Tween-80).
Regarding `OC(c1ccccc1)(C(F)(F)F)C(F)(F)F`, the T/C by setting is: under setting [3], 110 % of control; under setting [4], 92 % of control.
Consider `CCCCCCCCCC#CC(=O)O`, for which the T/C is, setting by setting: under setting [3], 95 % of control; under setting [4], 110 % of control; under setting [5], 89 % of control.
With `C=C1C(=O)OC2C=CCC12` (stereo not drawn), the T/C (dose: 3.13 mg/kg/injection, schedule: Q01DX009 (ip), vehicle: distilled water + Tween-80) is 99 % of control; the T/C (dose: 6.25 mg/kg/injection, schedule: Q01DX009 (ip), vehicle: distilled water + Tween-80) is 99 % of control; the T/C (dose: 12.5 mg/kg/injection, schedule: Q01DX009 (ip), vehicle: distilled water + Tween-80) was 100 % of control; the T/C (dose: 25.0 mg/kg/injection, schedule: Q01DX009 (ip), vehicle: distilled water + Tween-80) was 107 % of control; the T/C (dose: 50.0 mg/kg/injection, schedule: Q01DX009 (ip), vehicle: distilled water + Tween-80) was 107 % of control.
With `O=[N+]([O-])c1ccc(CS(=O)(=O)OCCCl)cc1`, the T/C is, setting by setting: under setting [6], 98 % of control; under setting [7], 98 % of control; under setting [8], 94 % of control.
Regarding `O=C(O)C(Cc1ccccc1[N+](=O)[O-])N1C(=O)c2ccccc2C1=O` (stereo not drawn), the T/C reads like this: under setting [3], 112 % of control; under setting [4], 92 % of control; under setting [5], 94 % of control; (dose: 400.0 mg/kg/injection, schedule: Q01DX009 (ip), vehicle: saline with Tween-80) 100 % of control.
Take `CC(=O)c1cc(-c2ccc3ccccc3c2)nc2ccccc12`: the T/C is 96 % of control under setting [6], 94 % of control under setting [7] and 100 % of control under setting [8].
For `O=C1C=CC(=O)C(C2OC(=O)C(Br)=C2Br)=C1` (stereo not drawn), the T/C was 114 % of control (dose: 50.0 mg/kg/injection, schedule: Q01DX005 (ip), vehicle: distilled water + Tween-80) and 115 % of control (dose: 100.0 mg/kg/injection, schedule: Q01DX005 (ip), vehicle: distilled water + Tween-80).
In the case of `C=C1C(=O)O[C@@H]2[C@H]1CC[C@H](C)[C@]1(O)CCC(=O)[C@@]21C`, the T/C by setting is: (dose: 12.5 mg/kg/injection, schedule: Q01DX009 (ip), vehicle: Klucel (hydroxypropylcellulose) (HPC)) 112 % of control; (dose: 25.0 mg/kg/injection, schedule: Q01DX009 (ip), vehicle: Klucel (hydroxypropylcellulose) (HPC)) 114 % of control; (dose: 44.0 mg/kg/injection, schedule: Q01DX009 (ip), vehicle: Klucel (hydroxypropylcellulose) (HPC)) 115 % of control; (dose: 50.0 mg/kg/injection, schedule: Q01DX009 (ip), vehicle: Klucel (hydroxypropylcellulose) (HPC)) 117 % of control; (dose: 67.0 mg/kg/injection, schedule: Q01DX009 (ip), vehicle: Klucel (hydroxypropylcellulose) (HPC)) 117 % of control; (dose: 100.0 mg/kg/injection, schedule: Q01DX009 (ip), vehicle: Klucel (hydroxypropylcellulose) (HPC)) 117 % of control. In addition, the T/C (dose: 150.0 mg/kg/injection, schedule: Q01DX009 (ip), vehicle: Klucel (hydroxypropylcellulose) (HPC)) is 122 % of control.
For the compound `O=C/C=C/n1ccccc1=S`, the T/C runs as follows: (dose: 10.0 mg/kg/injection, schedule: Q01DX001 (ip), vehicle: Klucel (hydroxypropylcellulose) (HPC)) 109 % of control; (dose: 20.0 mg/kg/injection, schedule: Q01DX001 (ip), vehicle: Klucel (hydroxypropylcellulose) (HPC)) 102 % of control.
`C=CCC(C(C)=O)C(=O)OC` (stereo not drawn): the T/C (dose: 50.0 mg/kg/injection, schedule: Q01DX005 (ip), vehicle: saline) is 90 % of control; the T/C (dose: 100.0 mg/kg/injection, schedule: Q01DX005 (ip), vehicle: saline) was 104 % of control; the T/C (dose: 200.0 mg/kg/injection, schedule: Q01DX005 (ip), vehicle: saline) is 100 % of control.
Take `CC1=CN2CCC(=O)N=C2C=C1`: the T/C is 93 % of control under setting [2]; 90 % of control under setting [1]; 94 % of control (dose: 200.0 mg/kg/injection, schedule: Q01DX009 (ip), vehicle: saline).
With `Cc1ccc(C)c(NC(=O)Oc2cc(C)c(Cl)c(C)c2)c1`, the T/C is, setting by setting: under setting [3], 101 % of control; under setting [4], 105 % of control; under setting [5], 98 % of control.
Consider `COc1ccc(-c2cc(=O)c3cc(C)c(C)c(C#N)c3o2)cc1`, for which the T/C is 120 % of control (dose: 3.75 mg/kg/injection, schedule: Q01DX005 (ip), vehicle: Klucel (hydroxypropylcellulose) (HPC)); 93 % of control (dose: 7.5 mg/kg/injection, schedule: Q01DX005 (ip), vehicle: Klucel (hydroxypropylcellulose) (HPC)); 109 % of control (dose: 15.0 mg/kg/injection, schedule: Q01DX005 (ip), vehicle: Klucel (hydroxypropylcellulose) (HPC)); 86 % of control (dose: 120.0 mg/kg/injection, schedule: Q01DX005 (ip), vehicle: Klucel (hydroxypropylcellulose) (HPC)).
In the case of `CCC(C)C1NC(=O)C(NC(=O)c2c3nc4c(C(=O)NC5C(=O)NC(C(C)CC)C(=O)N6CCCC6C(=O)N(C)CC(=O)N(C)C(C(C)C)C(=O)OC5C)cc([N+](=O)[O-])c(C)c4oc-3c(C)c(=O)c2N)C(C)OC(=O)C(C(C)C)N(C)C(=O)CN(C)C(=O)C2CCCN2C1=O` (stereo not drawn), the T/C (dose: 0.2 mg/kg/injection, schedule: Q01DX009 (ip), vehicle: Klucel (hydroxypropylcellulose) (HPC)) is 168 % of control; the T/C (dose: 0.4 mg/kg/injection, schedule: Q01DX009 (ip), vehicle: Klucel (hydroxypropylcellulose) (HPC)) was 228 % of control; the T/C (dose: 0.4 mg/kg/injection, schedule: Q01DX009 (ip), vehicle: water) was 169 % of control; the T/C (dose: 0.6 mg/kg/injection, schedule: Q01DX009 (ip), vehicle: water) was 193 % of control; the T/C (dose: 0.8 mg/kg/injection, schedule: Q01DX009 (ip), vehicle: Klucel (hydroxypropylcellulose) (HPC)) is 92 % of control.
On to `COc1ccc2c(c1)CC(=CO)CC2=O.COc1ccc2c(c1)CC/C(=C/O)C2=O.[Cu]`, for which the T/C reads like this: (dose: 37.5 mg/kg/injection, schedule: Q01DX009 (ip), vehicle: saline with Tween-80) 100 % of control; (dose: 75.0 mg/kg/injection, schedule: Q01DX009 (ip), vehicle: saline with Tween-80) 90 % of control; under setting [4], 95 % of control; (dose: 150.0 mg/kg/injection, schedule: Q01DX009 (ip), vehicle: saline with Tween-80) 109 % of control; under setting [5], 123 % of control; (dose: 200.0 mg/kg/injection, schedule: Q04DX003 (ip), vehicle: saline with Tween-80) 91 % of control. For the same compound, the T/C (dose: 400.0 mg/kg/injection, schedule: Q04DX003 (ip), vehicle: saline with Tween-80) is 91 % of control.
